PubChem BioAssay AID549 (SRMLSC, 2006)
Activity calls are given as the source filed them.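 Rule for the calls: active = clearly stronger inhibition of phosphomevalonate kinase than of the coupling enzymes alone in a parallel counterscreen; inactive = the rest.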

These compounds were tested against phosphomevalonate kinase (Streptococcus pneumoniae D39) (assay: phosphomevalonate kinase inhibition IC50 – biochemical, mevalonate pathway, coupling enzyme counter-screen, dose response (AID 549)). Settings: PMK enzyme, PK/LDH coupled NADH absorbance 340 nm.

Compound | outcome
COCc1cc(=O)[nH]c(Nc2nc(C)c3ccc(C)cc3n2)n1 | inactive
CS(=O)(=O)N1CCCC(C(=O)N2CCOCC2)C1 (stereo not drawn) | inactive
CCCN1CCN(CCCNC(=O)Cn2nc(-c3ccccc3)ccc2=O)CC1 | inactive
N#Cc1c(N)sc(=S)c2c1CCN(Cc1ccccc1)C2 | inactive
CCOc1ccccc1-n1c(SCC(=O)Nc2ccc(CC)cc2)nc2n[nH]c(C)c2c1=N | inactive
C=CCNC(=O)C1CCCN(S(C)(=O)=O)C1 (stereo not drawn) | inactive
CN1CC(=O)NC1=NC(=O)c1ccc(Cl)c(S(=O)(=O)N2CCCCCC2)c1 | inactive
c1ccc(CCn2nnnc2C(c2cccs2)N2CCOCC2)cc1 (stereo not drawn) | inactive
COc1ccc2c(c1)c(C(=O)CNc1nc(C)cs1)c(C)n2C | inactive
CCOC(=O)CSc1n[nH]c(-c2cccnc2)n1 | inactive
COCCCNC(=O)CN(C1CCCCC1)S(=O)(=O)c1ccc(C)cc1 | inactive
COC(=O)c1ccccc1S(=O)(=O)N(Cc1cc2ccc(OC)cc2[nH]c1=O)CC1CCCO1 (stereo not drawn) | inactive
NC(=O)CCN(Cc1ccccc1)S(=O)(=O)c1ccccc1 | inactive
CC(C)OC(=O)CN1C(=O)c2ccccc2C1=O | inactive
COc1ccccc1CNC(=O)C1CCN(c2nc3ccccc3o2)CC1 | inactive
Cc1cccc(-n2nc3c(c2NC(=O)c2ccco2)CSC3)c1C | inactive
O=C(CCSc1nc(-c2ccc3c(c2)OCO3)cc(C(F)(F)F)n1)NCc1ccco1 | inactive
N#Cc1cccc(CSc2nnc(CCCO)n2-c2ccccc2)c1 | inactive
COc1cccc2cc(C(=O)N3CCN(c4ccccc4F)CC3)c(=O)oc12 | inactive
CCOc1cc(C#N)c(NC(=O)c2cccnc2)cc1OCC | inactive
CC12C=CC3(CN(Cc4ccccc4)C(=O)C3C1C(=O)NC1CC1)O2 (stereo not drawn) | inactive
CCOCCCN1C(=O)CN(C2CCCCC2)C(=O)C1c1ccc(OCC)c(OC)c1 (stereo not drawn) | inactive
CCCn1cnc2c(cnn2-c2ccc(F)cc2)c1=O | inactive
Cc1ccnc(N2CCC(C(=O)Nc3ccc(Oc4ccccc4)cc3)CC2)n1 | inactive
COC(=O)c1nonc1NCn1nnc2ccccc21 | inactive
CCOC(=O)N1CCC(NC(=O)CCc2cn(C)c3ccccc23)CC1 | inactive

Compound | outcome
COCC(=O)N(C)c1nnc(-c2cnc(C)cn2)s1 | inactive
CCOC(=O)CC(=O)CSc1nnc2c(n1)[nH]c1ccccc12 | inactive
CCOC(=O)c1c(C)n(C)c2ccc(OC)c(NS(=O)(=O)c3ccc(Cl)s3)c12 | inactive
CCOC(=O)C(CCc1nnc(N)s1)C(=O)OCC | inactive
Cc1oc2c(O)c(O)ccc2c(=O)c1-c1ccccc1 | inactive
CC1(C)CC(=O)c2cc(OCC(=O)N3CCN(c4ccccc4F)CC3)ccc2O1 | inactive
COc1ccc(CN2C(=O)c3ccccc3C2C(=O)NC2CCCC2)c(OC)c1 (stereo not drawn) | inactive
Cc1occc1C(=O)Nc1nnc(C(F)(F)F)s1 | inactive
CS(=O)(=O)N1CCCC(C(=O)NCc2cccs2)C1 (stereo not drawn) | inactive
Cn1c2ccccc2c2cnn(CC(=O)N3CCN(c4ncccn4)CC3)c(=O)c21 | inactive
CCn1c2ccccc2c2cc(CN3CCN(C(=O)c4ccco4)CC3)ccc21 | inactive
COc1ccc(S(=O)(=O)N2CCN(C3CCCCCCC3)CC2)cc1 | inactive
OC1CCCN(Cc2ccc3c(c2)Cc2ccccc2-3)C1 (stereo not drawn) | inactive
CC1CCN(C(=O)CSc2nc3ccccc3[nH]2)CC1 | inactive
CCOC(=O)N1CCN(C(=O)Cn2nc(-c3ccc(Cl)cc3)ccc2=O)CC1 | inactive
CNC(=O)C1CC(=O)N(Cc2ccc3c(c2)OCO3)C(=Nc2ccc(OC)cc2)S1 (stereo not drawn) | inactive
COc1ccc(-c2cc3nc(C)c(CCC(=O)N4CCCCC4)c(C)n3n2)c(OC)c1 | inactive
Cc1nc(NC(=O)c2ccco2)sc1C(=O)Nc1ccc(Br)cc1 | inactive
N#Cc1cc2ccccc2nc1SCc1cccnc1 | inactive
COC(=O)c1cn(-c2ccccc2)nc1C(=O)OC | inactive
CCC(=O)N(Cc1ccco1)c1nc(-c2ccccc2)cs1 | inactive
CCC1CCCCN1CCCNC(=O)Cn1nc(-c2ccccc2)ccc1=O (stereo not drawn) | inactive
O=C(O)CCS(=O)(=O)Cc1ccccc1F | inactive
COc1ccc(C(=O)Nc2ccccc2C(=O)NC(C(=O)NCc2ccco2)C(C)C)cc1 (stereo not drawn) | inactive
CCOC(=O)N1CCN(C(=O)C2CCN(S(=O)(=O)N3CCCC3)CC2)CC1 | inactive
O=C(CCc1nc2ccccc2c(=O)[nH]1)OCC(=O)N1CCN(S(=O)(=O)c2ccccc2)CC1 | inactive

Compound | outcome
Cc1cc(NCCCN2CCOCC2)n2nc(C)c(-c3ccc(F)cc3)c2n1 | inactive
COCCCNC(=O)c1ccc(N2CCCC2)c(NS(=O)(=O)c2ccc(C)cc2)c1 | inactive
Cc1n[nH]c(=S)n(/N=C/c2ccccn2)c1=O | inactive
COc1ccccc1CNC(=O)C1CCN(S(=O)(=O)N2CC(C)CC(C)C2)CC1 (stereo not drawn) | inactive
CCS(=O)(=O)N1CCC(C(=O)NCC2CCCO2)CC1 (stereo not drawn) | inactive
COc1cc(OC)nc(NC(=O)NS(=O)(=O)c2ccc(OC(F)(F)F)cc2)n1 | inactive
CN(C)c1ccc(CNCCC2(O)CCOC(C)(C)C2)cc1 (stereo not drawn) | inactive
CCc1nn(C(C)C(=O)NCCc2ccc(OC)c(OC)c2)c(=O)c2cc3occc3n12 (stereo not drawn) | inactive
Cc1cccc(OCCCc2c(C)n[nH]c2C)c1 | inactive
COCCn1c(C)cc2c(c1=O)C(c1ccccc1F)C(C#N)=C(N)O2 (stereo not drawn) | inactive
COC(=O)C(NC(=O)c1ccccc1)=C1C=C(C)OC(C)=C1 | inactive
CC1SC(=NC(=O)c2ccco2)NC1=O (stereo not drawn) | inactive
O=c1oc2ccccc2n1CCn1c2ccccc2c2nc3ccccc3nc21 | inactive
Cc1ccc(-c2noc(CCC(=O)NCCN3CCc4ccccc4C3)n2)cc1 | inactive
CC1(C(=O)NC2CCCCCCC2)CCC(=O)N1Cc1ccco1 (stereo not drawn) | inactive
CC(C)(C)NS(=O)(=O)c1ccc(NS(=O)(=O)c2ccc(F)cc2)cc1 | inactive
COc1ccccc1CN(Cc1cc2cc(C)cc(C)c2[nH]c1=O)Cc1nnnn1CC1CCCO1 (stereo not drawn) | inactive
CNC(=O)Cn1ncc2c(C)n(Cc3ccc(C)cc3)c(C)c2c1=O | inactive
C=CCn1c(NCc2ccccc2)nc2ccccc21 | inactive
O=C(c1cc(-c2ccco2)on1)N1CCCc2ccccc21 | inactive
O=C(CSc1nnc(COc2ccccc2)n1-c1ccccc1)c1cccs1 | inactive
Cn1c(=O)c2c(-c3ccccc3)n(C3CCCCC3)cc2n(C)c1=O | inactive
Cc1cc(C)cc(CC2CC(=O)N(c3nc(C)cc(C)n3)C2=O)c1 (stereo not drawn) | inactive
CC(CN1CCN(C)CC1)OC(=O)c1ccc(Cl)cc1 (stereo not drawn) | inactive
COCC(C)n1c(COc2ccccc2F)nnc1SCc1c(C)noc1C (stereo not drawn) | inactive
CN(C(=O)C1CCOC1)c1nnc(C2CCOC2)s1 (stereo not drawn) | inactive
